{"source": "patent US20240197712A1", "about": "“TGF-BETA INHIBITION FOR IMMUNODEFICIENCY VIRUS REACTIVATION FROM LATENCY, ENHANCEMENT OF IMMUNODEFICIENCY VIRUS-SPECIFIC RESPONSES AND IMMUNODEFICIENCY VIRUS CURE” (Northwestern University, priority 2022, published 2024)", "key": {"U1 cells [1]": {"system": "U1 cells", "assay": "PMA-induced HIV reactivation in U1 cells, intracellular p24 staining", "format": "cell-based", "details": "U1 cells", "experimental": "(§1) ACH2 cells and U1 cells were obtained through the NIH HIV Reagent Program, Division of AIDS, NIAID, NIH (contributed by Dr. Thomas Folks). Cells (105/well) were cultured in triplicates in RPMI with 10% FBS and Pen/Strep in presence of TGF-β1 (10 ng/ml R&D systems), TGF-β1 and galunisertib (1 μM MedChemExpress), galunisertib alone or mock treated. In the HIV latency reactivation conditions, PMA (Phorbol 12-myristate 13-acetate, SigmaAldrich) was added at 100 ng/ml together with galunisertib or TGF-β1. After 18 hrs, cells were stained intracellularly for p24 using the KC57 antibody (NIH HIV Reagent Program) as previously described (74)."}, "ACH-2 cells": {"system": "ACH-2 cells", "assay": "PMA-induced HIV reactivation in ACH-2 cells, intracellular p24 staining", "format": "cell-based", "experimental": "as §1, with “Cells (105/well) were cultured in triplicates in RPMI with 10% FBS and Pen/Strep in presence of TGF-β1 (10 ng/ml R&D systems), TGF-β1 and galunisertib (1 μM MedChemExpress), galunisertib alone or mock treated.” left out"}, "primary CD4+ T cells": {"system": "primary CD4+ T cells", "assay": "Primary CD4+ T cell model of HIV-1 latency, p24 ICS", "format": "cell-based, human", "details": "primary CD4+ T cells infected with HIV ADA; PMA 100 ng/ml; TGF-β1 10 ng/ml or galunisertib 1 μM", "experimental": "Next, the impact of TGF-β1 on a primary model of HIV-1 latency was tested using freshly isolated CD4+ T cells. The experiment was based on the model by Berkhout and colleagues (50) with some modifications (FIG. 1F). Specifically, CD4+ T cells were isolated from HIV-1 uninfected, de-identified donor PBMC and activated them with PHA and IL-2 for 3 days before infection via spinoculation with HIV ADA. After extensive wash of the viral inoculum, cells were cultured 48 hrs in presence of T20 (enfuvirtide) to avoid viral spread beyond the cells with initial integrations. The overall initial infection achieved was very low despite the spinoculation step (˜0.1% of p24-gag+ cells, FIGS. 3A-3B).\nBlood from de-identified donors was obtained from the New York Blood Bank and used as source of CD4 T cells for the primary model of HIV latency in vitro. Total CD4+ T cells were isolated with the CD4 T cells isolation kit (Miltenyi) and activated with 5 μg/ml of PHA and 50 U/ml of IL-2 for 3 days. After washing out the PHA, cells were infected with 200TCID50 of HIV-ADA (NIH HIV Reagent Program) in 12 or 24 wells/plates and spinoculated at 1200 g for 2 hrs at 25° C. After additional 3 hrs of incubation at 37° C., viral inoculum was washed and cells plated in presence of T20 (Enfurtivide acetate salt, 1 μM NIH AIDS reagent program). […]"}, "U1 cells [2]": {"system": "U1 cells", "assay": "DC-driven HIV reactivation from U1 cells (moDC co-culture)", "format": "cell-based", "details": "moDCs treated with TGF-β1 10 ng/ml for last 2 days, with or without galunisertib; 18 hrs co-culture", "experimental": "(§2) CD14^+ cells were isolated from PBMC using the Miltenyi CD14^+ beads. Monocyte-derived DCs (moDCs) were obtained from CD14+ cells cultured in GM-CSF and IL-4 as previously described (55). At day 4 of moDCs differentiation, TGF-β1 (10 ng/ml R&D systems) was added to the moDCs to generate the TGF-β-DCs (or both TGF-β1 and galunisertib). At day 6, 2 days after TGF-1 addition, moDCs were phenotyped (in 3 donors; See Table 2 for antibodies list) and co-cultured with eFluor670 (eBioscience)-labelled U1 at 3:1 U1:DC ratio (5 donors). After 18 hrs of co-culture, cells were stained for p24 intracellularly as described above."}, "moDCs": {"system": "moDCs", "assay": "moDC phenotyping by flow cytometry", "format": "cell-based, human", "details": "moDCs generated in the presence of TGF-β1", "experimental": "as §2"}}, "data": [{"substance": "TGF-β1: exogenous TGF-β1 cytokine (R&D systems) added to cultures at 10 ng/ml", "values": [{"measurement": "frequency of p24-gag+ cells in unstimulated cultures", "setting": "U1 cells [1]; no PMA, TGF-β1 10 ng/ml or galunisertib 1 μM alone", "result": "below the baseline level"}, {"measurement": "reduction of the PMA driven increase in the frequency of p24-gag+ cells", "setting": "U1 cells [1]; PMA 100 ng/ml, TGF-β1 10 ng/ml, 18 hrs", "result": "~20", "unit": "%"}, {"measurement": "decrease of the frequency of p24-gag+ cells in PMA-stimulated cultures", "setting": "ACH-2 cells; ACH-2 cells, PMA 100 ng/ml, TGF-β1 10 ng/ml", "result": "~20", "unit": "%"}, {"measurement": "baseline p24-gag levels in absence of PMA", "setting": "ACH-2 cells; ACH-2 cells, TGF-β1 10 ng/ml", "result": "smaller but consistent decrease"}, {"measurement": "effect on p24+ cells in X-Vivo 15 medium without FBS", "setting": "ACH-2 cells; control experiments, U1 and ACH-2, no FBS", "result": "more pronounced"}, {"measurement": "PMA-induced frequency of p24-gag+ cells", "setting": "primary CD4+ T cells", "result": "significantly inhibited"}, {"measurement": "frequency of p24-gag+ U1 cells in cocultures with TGF-β1-treated DCs versus untreated DCs", "setting": "U1 cells [2]", "result": "significantly less"}, {"measurement": "DEC-205 expression on moDCs", "setting": "moDCs", "result": "significantly lower"}]}]}
